In patent publication US20260165956A1, “IN VIVO TARGETING OF THERAPEUTIC MOLECULES TO THE RETINA VIA THE OPTICAL SYSTEM OF THE EYE” (SEMMELWEIS EGYETEM, priority 2022, published 2026):
“And” between values parts separate entries of the source, which are not always exact repeats. Equal entries are not always repeated. “Also recorded” adds a separate entry of the source. Where two headings read alike, the source gives them in different places.

Tests used:
VEGFR2 = biological target: T1, VEGFR2 (Homo sapiens, UniProt P35968); assay: VEGFR2/NFAT Reporter HEK293 luciferase assay of VEGF signaling; type: cell-based; details: VEGFR2-HEK cells; for IC50: 20 ng/ml VEGF165; for Dark/Light: ratio of IC50 dark to IC50 light
T1 construct: host or cells: HEK293 (VEGFR2/NFAT Reporter recombinant cell line)
Description: We have cultured the cells and conducted the measurements according to the manufacturer's instructions.
On the day preceding the measurement, 40 000 recombinant HEK cells were seeded into each well of a 96 well plate in a way that the experiments could be conducted in triplicates. […] For the conditions requiring irradiation, the plate was placed under a cold white LED light source within the incubator (37° C., 5% CO2) for the first 10 minutes of the 1-hour-long incubation with the inhibitors to imitate day-light, while the other plate was kept in the dark (also at 37° C., 5% CO2). Following the pre-incubation with inhibitors we treated the cells for 4 hours with VEGF without removing the inhibitors. For this purpose we used 20 ng/ml of commercially available human VEGF165 (Sf9 derived, from BPS BioScience Inc., Cat. No.: 91001-1) added directly into the cell-culture medium.
The IC50 values were calculated using the GraphPad Prism software.

[1] = tested on: human retinal microvascular endothelial cells (HRMEC); assay: tubulogenesis (in vitro angiogenesis) assay, number of meshes; type: cell-based; details: for IC50 / Dark/Light: HRMEC tubulogenesis; for Dark/Light: ratio of IC50 dark to IC50 light
Text: These cells preserve their endothelial nature, and when cultured on an appropriate extracellular matrix, they spontaneously form a network that corresponds to a network of capillaries. Images of such networks taken with a microscope can be quantified, and several parameters (such as the number of segments, number of closed loops, number of junction points) of the network can be quantified and used as a parameter describing the angiogenesis in vitro [Staton et al., 2009].
The inventors have applied their proprietary azidated inhibitors described in the present patent in an ascending series of concentrations. For all the said azidated inhibitors, the in vitro angiogenesis experiments were carried out both in complete darkness and in defined illumination conditions. The number of closed loops (number of meshes) was identified using an image recognition algorithm, and an IC50 curve was fitted onto the number of meshes plotted against substance concentration. […] These experiments thus provided further proof, that light increases the inhibitory potential of the novel azidated compounds described in the present patent.
In vitro angiogenesis (hereinafter referred to as “tubulogenesis”) mimicks several features of angiogenetic processes observed in vivo in vertebrate animals [Staton et al., 2009] and is based on the VEGF-dependent self-organizing capacity of endothelial cells via which tube-like structures emerge that share many properties with in vivo observed blood vessels. Therefore, the inhibitory potential of the newly synthetized molecules of the present invention was also assessed in tubulogenesis assay using human retinal microvascular endothelial cells (HRMEC) derived from post mortem human donors. When seeded onto a collagen and laminin containing matrix, HRMEC spontaneously form a two-dimensional blood-vessel-like network displaying several quantifiable features that can be used to measure angiogenic potential [Staton et al., 2009]. The newly synthetized, PMO-containing VEGFR inhibitors were added to the culture medium in increasing concentrations to test whether they can inhibit the spontaneous formation of the network from HRMEC. The increasing concentrations allowed the inventors to calculate the IC50 values for each inhibitor molecule. The results of these experiments (table 2.) have shown that the new, PMO-containing azidated inhibitors were capable of inhibiting the tubulogenesis. Furthermore, in the presence of light, the inhibition was stronger than in the dark, providing evidence for the photoactivation and the concomitant covalent binding of the azidated inhibitors to their target receptors.
To test the inhibitory effect of the compounds with light and without light on tubulogenesis [Staton et al., 2009], we have used human retinal microvascular endothelial cells (HRMEC) from Cell Systems (Kirkland, WA 98033, cat. N^o: ACBRI 181). VEGF165 (Invitrogen) was only used as a positive control in these experiments, otherwise tubulogenesis relied on endogenous VEGF produced by the culture.
Assays were performed in a 96-well cell culture plate (Biologix). The basement membrane matrix Geltrex (Invitrogen) was thawed on ice overnight before use. 50 μl Geltrex was added to each well with a chilled pipette, then the plate was centrifuged at 2000 rpm for 10 min at 4° C. Subsequently the matrix was let solidify in a humidified incubator at 37° C. for at least 30 minutes. Before seeding, HRMEC cells were treated with compounds (0.1 nM-10 μM) in EBM-2 medium (Lonza) in the dark. After 5 minutes, 100 μl of suspension of treated cells was seeded into each Geltrex-coated well of the plate at a density of 10^3 cells/well and then exposed to light treatment (cold white LED light) for 10 min at 37° C. and 5% CO2 or kept in the dark (control plate) in the incubator during light treatment. Subsequently both the irradiated and the control plates were left in the incubator for 12 hours so that the tubulogenesis can proceed. […]

neovascular AMD [2] = details: oral, phase II, trial prematurely stopped; cited from earlier work
neovascular AMD [3] = details: oral, phase I, patients; cited from earlier work
[4] = cold white LED light for the first 10 min of 1 h pre-incubation, read-out: IC50 Light
[5] = kept in the dark, read-out: IC50 Dark
[6] = Homo sapiens, HRMEC, 10 min, cold white LED light 10 min, no Ko-143, read-out: IC50 Light
[7] = Homo sapiens, HRMEC, dark, no Ko-143, read-out: IC50 Dark

T1 sequence (P35968 20-1356): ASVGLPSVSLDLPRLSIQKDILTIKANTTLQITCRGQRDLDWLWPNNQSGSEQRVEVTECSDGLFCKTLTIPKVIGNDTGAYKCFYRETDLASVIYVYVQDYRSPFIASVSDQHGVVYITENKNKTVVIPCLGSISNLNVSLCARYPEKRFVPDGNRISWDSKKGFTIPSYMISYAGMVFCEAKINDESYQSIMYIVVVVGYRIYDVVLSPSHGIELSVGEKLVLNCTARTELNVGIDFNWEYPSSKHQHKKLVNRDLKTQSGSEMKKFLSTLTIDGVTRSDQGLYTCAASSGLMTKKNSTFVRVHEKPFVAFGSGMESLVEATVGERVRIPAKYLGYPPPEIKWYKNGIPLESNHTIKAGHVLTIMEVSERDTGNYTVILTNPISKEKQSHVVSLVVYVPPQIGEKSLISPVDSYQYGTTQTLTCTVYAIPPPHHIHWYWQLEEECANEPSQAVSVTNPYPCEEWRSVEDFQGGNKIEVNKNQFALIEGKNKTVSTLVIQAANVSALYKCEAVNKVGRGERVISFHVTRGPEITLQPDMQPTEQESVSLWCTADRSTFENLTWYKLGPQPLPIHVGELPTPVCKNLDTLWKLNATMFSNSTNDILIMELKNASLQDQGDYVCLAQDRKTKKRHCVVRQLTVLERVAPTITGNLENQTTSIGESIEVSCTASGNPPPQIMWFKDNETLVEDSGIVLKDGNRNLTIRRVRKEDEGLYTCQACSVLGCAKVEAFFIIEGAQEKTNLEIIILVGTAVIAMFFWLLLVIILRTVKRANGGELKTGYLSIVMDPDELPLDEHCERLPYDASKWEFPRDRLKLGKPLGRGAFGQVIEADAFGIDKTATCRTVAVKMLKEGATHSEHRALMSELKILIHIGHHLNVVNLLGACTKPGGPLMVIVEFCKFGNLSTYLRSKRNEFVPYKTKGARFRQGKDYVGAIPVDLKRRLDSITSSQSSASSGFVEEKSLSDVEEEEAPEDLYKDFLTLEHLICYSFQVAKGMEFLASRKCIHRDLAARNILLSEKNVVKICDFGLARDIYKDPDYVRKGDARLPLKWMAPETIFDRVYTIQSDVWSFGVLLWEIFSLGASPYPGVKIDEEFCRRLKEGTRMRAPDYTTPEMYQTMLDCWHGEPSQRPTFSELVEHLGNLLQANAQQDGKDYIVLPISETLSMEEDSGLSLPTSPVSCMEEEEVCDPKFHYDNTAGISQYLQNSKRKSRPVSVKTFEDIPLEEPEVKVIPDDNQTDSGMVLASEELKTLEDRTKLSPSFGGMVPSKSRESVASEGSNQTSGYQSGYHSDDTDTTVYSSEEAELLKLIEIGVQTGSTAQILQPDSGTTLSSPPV

| SMILES | IC50 (VEGFR2; [4]) [nM] | IC50 (VEGFR2; [5]) | Dark/Light (VEGFR2) | IC50 ([1]; cold white LED light 10 min, 500 nM of Ko-143 in the medium, read-out: IC50 Light) [nM] | IC50 ([1]; Homo sapiens, HRMEC, 10 min, cold white LED light 10 min, 500 nM of Ko-143 in the medium, read-out: IC50 Light) [nM] | IC50 [1, 6] [nM] | IC50 [1, 7] [nM] | Dark/Light ([1]; 500 nM of Ko-143) | Dark/Light ([1]; no Ko-143) | effect on tubulogenesis ([1]; result in words) | adverse effects (neovascular AMD [2]) | efficacy against neovascular AMD (neovascular AMD [3]) |
| --- | --- | --- | --- | --- | --- | --- | --- | --- | --- | --- | --- | --- |
| Cc1[nH]c(/C=C2\C(=O)Nc3cc(Cl)c(N=[N+]=[N-])cc32)c(C)c1C(=O)N[C@H]1CCN(C(=O)N(C)C)C1 [5-defluoro-5-azido-6-chloro-vorolanib] | 0.921 | 57.8 nM | 62.80 | 173 | 135 | – | – | 3.97 | – | – | – | – |
| CCN(CC)CCNC(=O)c1c(C)[nH]c(/C=C2\C(=O)Nc3cc(F)c(N=[N+]=[N-])cc32)c1C [5-defluoro-5-azido-6-fluoro-sunitinib] | 8.86 | 69 nM | 7.79 | – | – | – | – | – | – | – | – | – |
| COc1ccc2c3c([nH]c2c1)[C@H](CC(C)C)N1C(=O)[C@H](CCC(=O)OC(C)(C)C)NC(=O)[C@@H]1C3 [Ko-143, reference compound] | – | – | – | – | – | – | – | – | – | no effect | – | – |
| CCN(CC)CCNC(=O)c1c(C)[nH]c(/C=C2\C(=O)Nc3cc(Br)c(N=[N+]=[N-])cc32)c1C [5-defluoro-5-azido-6-bromo-sunitinib (6), 5-defluoro-5-azido-6-bromo-sunitinib] | 3.5 | 60.4 nM and 60.7 nM | 17.25 | – | – | – | – | – | – | – | – | – |
| Cc1[nH]c(/C=C2\C(=O)Nc3ccc(F)cc32)c(C)c1C(=O)N[C@H]1CCN(C(=O)N(C)C)C1 [vorolanib] | – | – | – | – | – | – | – | – | – | – | hepatobiliary and gastrointestinal adverse effects; also recorded: intolerable levels of side effects | effective |
| CCN(CC)CCNC(=O)c1c(C)[nH]c(/C=C2\C(=O)Nc3cc(Cl)c(N=[N+]=[N-])cc32)c1C [5-defluoro-5-azido-6-chloro-sunitinib] | 2.23 | 40.4 nM | 18.12 | – | – | 168 | 655 | – | 3.48 | – | – | – |

The next lines start with results.

| IC50 (VEGFR2; [4]) [nM] | IC50 (VEGFR2; [5]) | Dark/Light (VEGFR2) | IC50 ([1]; cold white LED light 10 min, 500 nM of Ko-143 in the medium, read-out: IC50 Light) [nM] | IC50 ([1]; Homo sapiens, HRMEC, 10 min, cold white LED light 10 min, 500 nM of Ko-143 in the medium, read-out: IC50 Light) [nM] | IC50 [1, 6] [nM] | IC50 [1, 7] [nM] | SMILES | Dark/Light ([1]; 500 nM of Ko-143) | Dark/Light ([1]; no Ko-143) | effect on tubulogenesis ([1]; result in words) | adverse effects (neovascular AMD [2]) | efficacy against neovascular AMD (neovascular AMD [3]) |
| --- | --- | --- | --- | --- | --- | --- | --- | --- | --- | --- | --- | --- |
| 11.7 | 53.2 nM | 4.57 | – | – | 87 | 228 | CCN(CC)CCNC(=O)c1c(C)[nH]c(/C=C2\C(=O)Nc3cc(N=[N+]=[N-])c(F)cc32)c1C [6-azido-sunitinib (3), 6-azido-sunitinib] | – | 2.62 | – | – | – |
| 36.8 | 263 nM | 7.136 | – | – | 951 | 3540 | CCN(CC)CCNC(=O)c1c(C)[nH]c(/C=C2\C(=O)Nc3ccc(N=[N+]=[N-])cc32)c1C [5-defluoro-5-azido-sunitinib (1), 5-defluoro-5-azido-sunitinib] | – | 3.72 | – | – | – |
| 9.3 | 93.7 nM | 10.074 | – | – | 432 | 1090 | CCN(CC)CCNC(=O)c1c(C)[nH]c(/C=C2\C(=O)Nc3cc(N=[N+]=[N-])ccc32)c1C [5-defluoro-6-azido-sunitinib (2), 5-defluoro-6-azido-sunitinib] | – | 2.52 | – | – | – |
| 10.1 | 53.4 nM | 5.29 | – | – | – | – | Cc1[nH]c(/C=C2\C(=O)Nc3cc(N=[N+]=[N-])ccc32)c(C)c1C(=O)N[C@H]1CCN(C(=O)N(C)C)C1 [5-defluoro-6-azido-vorolanib (7), 5-defluoro-6-azido-vorolanib] | – | – | – | – | – |
